Data published in patent US12376594B2, “Pest control kit and method” (priority 2019, dated 2025).

Columns and labels:
[1] = system: Welsh chafer, Hoplia philanthus grubs; assay: Field trial, control of chafer grubs in golf course; assay type: in vivo; conditions: The Grove Golf Club, nematodes 2.5 billion per hectare twice weekly, Chlorpyrifos 2 litres a.i. per hectare once
Experimental: Trial was conducted at The Grove Golf Club, Watford, London, UK between May 2017 and October 2018. Treatments consisted of: Heterorhabditis bacteriophora 2.5 billion/ha applied alone, Pest control kit-C 2.5 billion/ha applied with Wetting agent composition (10 L/ha) and Chlorpyrifos (Equity) 2 L a.i./ha. All treatments were applied using soil injector followed conventional boom sprayer. Soil samples were taken at 2, 4, 6, and 8 weeks post application to assess grub population.
Field trials were conducted on a naturally infested tees, green and fairways containing a mixture of Welsh chafer, Hoplia philanthus (90%), Garden chafer, Phyllopertha horticola (3%), Summer chafer, Amphimallon solstitialis (1%), May beetle, Melolontha (4%) and wireworms Agriotes species (3%) at The Grove Golf Club, Watford, and Ashridge Golf Club, Berkhamsted, UK. […] No natural nematodes were detected by baiting soil samples with Galleria mellonella larvae.
One week before treatment, the pre-treatment larval density was determined in tees, greens and fairways (see FIG. 4) by taking three 16×16×10 to 15 cm soil plugs with a shovel or golf Hole Cutter (10 cm diameter). The living larvae were counted and expressed as number of larvae per square meter. […]
The treatments included: • 1. […] The larval density after treatment was determined 2, 4, 6, or 8 weeks after nematode or chlorpyrifos application. […]

sciarid fly larvae = assay: Field trial, control of sciarid fly larvae in mushroom production; assay type: in vivo, Lycoriella spp.; conditions: first week of application
Experimental: Treatments consisted of: Carbofuran, Teflubenzuron, Steinernema feltiae alone or with Wetting agent composition (as Pest control kit-S). Trial was conducted in mushroom production farm in UK in 2016-17. Mushrooms were naturally infected with sciarid larvae and numbers counted week 1 and 3 post treatments. Each treatment was replicated 4 times with 15 plants/treatment.
Fungus gnats, also known as sciarid flies, found on and around growing media, are a major pest for greenhouse and polytunnel ornamental crops. The sciarid fly larvae are responsible for causing damage to an extensive variety of economically important potted plants directly through feeding on roots and stalk tissue of seedlings, cuttings and younger plants. They also cause damage indirectly through the transmission of fungal disease through the wounds caused by sciarid larvae. Pot plants known to be susceptible to sciarid attack include Poinsettia, Azalea, Cyclamen, Kalanchoe, Exacum, Gerbera, Begonia and others. All kinds of young plants and young rooted cuttings (vegetables, ornamentals and young nursery plants) are highly susceptible to sciarid larvae. […] Mushrooms were harvested for up to 4 weeks and number of dead and live larvae were counted. […]
The number of surviving larvae was transformed into percentage efficacy using the equation below and analysed using analysis of variance (ANOVA). […]

With CCOP(=S)(OCC)Oc1nc(Cl)c(Cl)cc1Cl [Chlorpyrifos] the “Control of chafer grubs” value [1] was 62%.
O=C(NC(=O)c1c(F)cccc1F)Nc1cc(Cl)c(F)c(Cl)c1F [Teflubenzuron] was tested, and the “Sciarid fly larvae control” value (sciarid fly larvae) was 71%.
